# Reference: PMC11087525 (Scientific Reports, 2024)
# Legend:
# [1] = system: SARS-CoV-2 Delta variant; assay type: cell-based
# [2] = system: SARS-CoV-2 Delta variant; settings: cited from earlier work
smiles,measurement,setting,value
"CC(C)(C)[C@H](NC(=O)C(F)(F)F)C(=O)N1C[C@H]2[C@@H]([C@H]1C(=O)N[C@H](C#N)C[C@@H]1CCNC1=O)C2(C)C [NMR, nirmatrelvir]",EC90 for the Delta variant multiplied by a factor of 3,[1],0.3 µg/mL
same,EC90 for the Delta variant,[2]; conversion of 0.149 µM,~ 100 ng/mL
same,EC90,[2]; used in PBPK simulation study,149 nM
